The test system of this data set is CCRIS mutagenicity, Ames/micronucleus/aberration tests. The data set can be described thus: CCRIS mutagenicity studies.
[1] abbreviates: Test System: AMES SALMONELLA TYPHIMURIUM, Strain/Indicator: TA98, Metabolic Activation: NONE, Method: STANDARD PLATE.
Setting [2] is: Test System: AMES SALMONELLA TYPHIMURIUM, Strain/Indicator: TA100, Metabolic Activation: NONE, Method: STANDARD PLATE.
[3] abbreviates: Test System: AMES SALMONELLA TYPHIMURIUM, Strain/Indicator: TA98, Metabolic Activation: NONE, Method: PREINCUBATION
Setting [4] is: Test System: AMES SALMONELLA TYPHIMURIUM, Strain/Indicator: TA100, Metabolic Activation: NONE, Method: PREINCUBATION

Each structure is given as a SMILES string. Active and inactive are the calls of the source. How the calls were made is not given here.

For six compounds, mutagenic call results are on record in PubChem BioAssay AID1259407 (Chemical Carcinogenesis Research Information System (CCRIS), 2018).

As for `c1cc2ccc3ccc4ccc5cccc6c(c1)c2c3c4c56`, the mutagenic call by setting is: (Test System: AMES SALMONELLA TYPHIMURIUM, Strain/Indicator: TA97, Metabolic Activation: NONE, Method: STANDARD PLATE) “inactive; negative”; (Test System: AMES SALMONELLA TYPHIMURIUM, Strain/Indicator: TA97, Metabolic Activation: RAT, LIVER, S-9, PCB, Method: STANDARD PLATE) “active; positive”; under setting [1], “inactive; negative”; (Test System: AMES SALMONELLA TYPHIMURIUM, Strain/Indicator: TA98, Metabolic Activation: RAT, LIVER, S-9, AROCLOR 1254, Method: FLUCTUATION) “active; positive”; (Test System: AMES SALMONELLA TYPHIMURIUM, Strain/Indicator: TA98, Metabolic Activation: RAT, LIVER, S-9, AROCLOR 1254, Method: STANDARD PLATE) “active; positive”; (Test System: AMES SALMONELLA TYPHIMURIUM, Strain/Indicator: TA98, Metabolic Activation: RAT, LIVER, S-9, PCB, Method: STANDARD PLATE) “active; positive”. The mutagenic call under setting [2] is “inactive; negative”; the mutagenic call (Test System: AMES SALMONELLA TYPHIMURIUM, Strain/Indicator: TA100, Metabolic Activation: RAT, LIVER, S-9, AROCLOR 1254, Method: STANDARD PLATE) was “active; positive”; the mutagenic call (Test System: AMES SALMONELLA TYPHIMURIUM, Strain/Indicator: TA100, Metabolic Activation: RAT, LIVER, S-9, PCB, Method: STANDARD PLATE) is “inactive; negative”; the mutagenic call (Test System: AMES SALMONELLA TYPHIMURIUM, Strain/Indicator: TA1537, Metabolic Activation: RAT, LIVER, S-9, AROCLOR 1254, Method: STANDARD PLATE) was “active; positive”; the mutagenic call (Test System: AMES SALMONELLA TYPHIMURIUM, Strain/Indicator: TA1538, Metabolic Activation: RAT, LIVER, S-9, AROCLOR 1254, Method: FLUCTUATION) was “active; positive”; the mutagenic call (Test System: AMES SALMONELLA TYPHIMURIUM, Strain/Indicator: TA1538, Metabolic Activation: RAT, LIVER, S-9, AROCLOR 1254, Method: STANDARD PLATE) was “active; positive”. The mutagenic call (Test System: AMES SALMONELLA TYPHIMURIUM, Strain/Indicator: TA1538, Metabolic Activation: RAT, LIVER, S-9, PHENOBARBITAL, Method: STANDARD PLATE) is “active; positive”.

With `CCCCN(CC(O)c1ccc([O-])c([N+]#N)c1)N=O` (stereo not given), the mutagenic call was “active; positive” under setting [3]; “active; positive” (Test System: AMES SALMONELLA TYPHIMURIUM, Strain/Indicator: TA98, Method: PREINCUBATION); “active; positive” under setting [4]; “active; positive” (Test System: AMES SALMONELLA TYPHIMURIUM, Strain/Indicator: TA100, Method: PREINCUBATION).

Regarding `NC(=O)CN1CC(O)CC1=O` (stereo not given), the mutagenic call is, setting by setting: (Test System: AMES SALMONELLA TYPHIMURIUM, Strain/Indicator: TA98, Metabolic Activation: NONE) “inactive; negative”; (Test System: AMES SALMONELLA TYPHIMURIUM, Strain/Indicator: TA98, Metabolic Activation: RAT, LIVER, S-9, AROCLOR 1254) “inactive; negative”; (Test System: AMES SALMONELLA TYPHIMURIUM, Strain/Indicator: TA100, Metabolic Activation: NONE) “inactive; negative”; (Test System: AMES SALMONELLA TYPHIMURIUM, Strain/Indicator: TA100, Metabolic Activation: RAT, LIVER, S-9, AROCLOR 1254) “inactive; negative”; (Test System: AMES SALMONELLA TYPHIMURIUM, Strain/Indicator: TA1535, Metabolic Activation: NONE) “inactive; negative”; (Test System: AMES SALMONELLA TYPHIMURIUM, Strain/Indicator: TA1535, Metabolic Activation: RAT, LIVER, S-9, AROCLOR 1254) “inactive; negative”. Besides, the mutagenic call reads like this: (Test System: AMES SALMONELLA TYPHIMURIUM, Strain/Indicator: TA1537, Metabolic Activation: NONE) “inactive; negative”; (Test System: AMES SALMONELLA TYPHIMURIUM, Strain/Indicator: TA1537, Metabolic Activation: RAT, LIVER, S-9, AROCLOR 1254) “inactive; negative”; (Test System: E. COLI, Strain/Indicator: WP2 UVRA, Metabolic Activation: NONE) “inactive; negative”; (Test System: E. COLI, Strain/Indicator: WP2 UVRA, Metabolic Activation: RAT, LIVER, S-9, AROCLOR 1254) “inactive; negative”.

Consider `CSCCC=O`, for which the mutagenic call under setting [3] is “inactive; negative”; the mutagenic call (Test System: AMES SALMONELLA TYPHIMURIUM, Strain/Indicator: TA98, Metabolic Activation: RAT LIVER S-9, AROCLOR 1254, Method: PREINCUBATION) was “inactive; negative”; the mutagenic call under setting [4] is “inactive; negative”; the mutagenic call (Test System: AMES SALMONELLA TYPHIMURIUM, Strain/Indicator: TA100, Metabolic Activation: RAT LIVER S-9, AROCLOR 1254, Method: PREINCUBATION) was “inactive; negative”; the mutagenic call (Test System: AMES SALMONELLA TYPHIMURIUM, Strain/Indicator: TA1535, Metabolic Activation: NONE, Method: PREINCUBATION) is “inactive; negative”; the mutagenic call (Test System: AMES SALMONELLA TYPHIMURIUM, Strain/Indicator: TA1535, Metabolic Activation: RAT LIVER S-9, AROCLOR 1254, Method: PREINCUBATION) is “inactive; negative”. Moreover, the mutagenic call is “inactive; negative” (Test System: AMES SALMONELLA TYPHIMURIUM, Strain/Indicator: TA1537, Metabolic Activation: NONE, Method: PREINCUBATION); “inactive; negative” (Test System: AMES SALMONELLA TYPHIMURIUM, Strain/Indicator: TA1537, Metabolic Activation: RAT LIVER S-9, AROCLOR 1254, Method: PREINCUBATION); “inactive; negative” (Test System: AMES SALMONELLA TYPHIMURIUM, Strain/Indicator: TA1538, Metabolic Activation: NONE, Method: PREINCUBATION); “inactive; negative” (Test System: AMES SALMONELLA TYPHIMURIUM, Strain/Indicator: TA1538, Metabolic Activation: RAT LIVER S-9, AROCLOR 1254, Method: PREINCUBATION); “active; positive” (Test System: MOUSE LYMPHOMA, Strain/Indicator: L5178Y (TK+/TK-), Metabolic Activation: NONE, Method: SUSPENSION/PLATE); “active; positive” (Test System: MOUSE LYMPHOMA, Strain/Indicator: L5178Y (TK+/TK-), Metabolic Activation: RAT LIVER S-9, AROCLOR 1254, Method: SUSPENSION/PLATE).

As for `COc1ccc2c(c1)C(=O)c1nccc3cc4c(c-2c13)OCO4`, the mutagenic call (Test System: AMES SALMONELLA TYPHIMURIUM, Strain/Indicator: TA98, Metabolic Activation: RAT, LIVER, S-9, PHENOBARBITAL AND BETA-NAPHTHOFLAVONE, Method: PREINCUBATION) was “active; positive” and the mutagenic call (Test System: AMES SALMONELLA TYPHIMURIUM, Strain/Indicator: TA100, Metabolic Activation: RAT, LIVER, S-9, PHENOBARBITAL AND BETA-NAPHTHOFLAVONE, Method: PREINCUBATION) is “active; positive”.

As to `Cc1cccc(C)c1N=Nc1c(O)ccc2ccccc12`, the mutagenic call by setting is: under setting [1], “inactive; negative”; (Test System: AMES SALMONELLA TYPHIMURIUM, Strain/Indicator: TA98, Metabolic Activation: RAT, LIVER, S-9, Method: STANDARD PLATE) “inactive; negative”; under setting [2], “inactive; negative”; (Test System: AMES SALMONELLA TYPHIMURIUM, Strain/Indicator: TA100, Metabolic Activation: RAT, LIVER, S-9, Method: STANDARD PLATE) “inactive; negative”.
